In patent US11739098B2 (BRISTOL-MYERS SQUIBB COMPANY, priority 2017, dated 2023):

Key:
Assay type in all cases: cell-based
human TLR8 = target: T1, human TLR8 (Homo sapiens, UniProt Q9NR97); assay: TLR8 inhibition reporter assay (HEK-Blue cells, SEAP reporter, R848 stimulation); settings: HEK-Blue cells overexpressing human TLR8, SEAP reporter, R848 15.9 μM
T1 construct: host or cells: HEK-Blue cells (HEK293-derived reporter line)
T1 sequence (Q9NR97 27-1041): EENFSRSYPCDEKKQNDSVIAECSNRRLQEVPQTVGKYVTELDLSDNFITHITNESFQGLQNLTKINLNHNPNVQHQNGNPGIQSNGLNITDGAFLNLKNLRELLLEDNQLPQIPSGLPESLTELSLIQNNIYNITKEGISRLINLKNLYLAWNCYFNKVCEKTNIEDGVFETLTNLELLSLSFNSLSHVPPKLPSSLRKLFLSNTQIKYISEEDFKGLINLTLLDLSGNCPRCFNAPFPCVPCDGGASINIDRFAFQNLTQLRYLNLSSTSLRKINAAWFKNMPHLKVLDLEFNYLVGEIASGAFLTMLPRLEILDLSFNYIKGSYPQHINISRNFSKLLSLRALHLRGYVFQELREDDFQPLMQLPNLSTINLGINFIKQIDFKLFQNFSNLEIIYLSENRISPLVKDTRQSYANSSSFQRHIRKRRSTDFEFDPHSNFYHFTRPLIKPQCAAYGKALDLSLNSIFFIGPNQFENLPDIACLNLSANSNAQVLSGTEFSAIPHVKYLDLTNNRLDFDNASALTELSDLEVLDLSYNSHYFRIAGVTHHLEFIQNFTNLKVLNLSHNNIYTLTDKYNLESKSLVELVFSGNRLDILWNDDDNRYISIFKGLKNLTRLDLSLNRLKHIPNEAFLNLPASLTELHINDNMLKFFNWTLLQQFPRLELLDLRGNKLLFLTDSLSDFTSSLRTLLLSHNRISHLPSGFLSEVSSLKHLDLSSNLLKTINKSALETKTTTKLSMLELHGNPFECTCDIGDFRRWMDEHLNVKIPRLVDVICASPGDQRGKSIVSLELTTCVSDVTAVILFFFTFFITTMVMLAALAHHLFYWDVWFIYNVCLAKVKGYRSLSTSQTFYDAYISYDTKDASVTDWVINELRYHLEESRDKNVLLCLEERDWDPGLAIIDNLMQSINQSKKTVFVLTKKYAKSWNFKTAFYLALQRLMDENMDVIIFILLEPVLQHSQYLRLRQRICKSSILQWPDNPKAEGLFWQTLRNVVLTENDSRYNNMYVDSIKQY
How it was run: (§1)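 Percent inhibition of agonist-induced SEAP secretion in HEK-Blue cells after 22 h at 37 °C. Stimuli: 7.5 μM gardiquimod, 15.9 μM R848, 5 nM ODN2006 for TLR7, TLR8 and TLR9, added after 30 min compound exposure over a 0.05 nM–50 μM range.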

human TLR9 = target: T2, human TLR9 (Homo sapiens, UniProt Q9NR96); assay: TLR9 inhibition reporter assay (HEK-Blue cells, SEAP reporter, ODN2006 stimulation); settings: HEK-Blue cells overexpressing human TLR9, SEAP reporter, ODN2006 5 nM
T2 construct: host or cells: HEK-Blue cells (HEK293-derived reporter line)
T2 sequence (Q9NR96 26-1032): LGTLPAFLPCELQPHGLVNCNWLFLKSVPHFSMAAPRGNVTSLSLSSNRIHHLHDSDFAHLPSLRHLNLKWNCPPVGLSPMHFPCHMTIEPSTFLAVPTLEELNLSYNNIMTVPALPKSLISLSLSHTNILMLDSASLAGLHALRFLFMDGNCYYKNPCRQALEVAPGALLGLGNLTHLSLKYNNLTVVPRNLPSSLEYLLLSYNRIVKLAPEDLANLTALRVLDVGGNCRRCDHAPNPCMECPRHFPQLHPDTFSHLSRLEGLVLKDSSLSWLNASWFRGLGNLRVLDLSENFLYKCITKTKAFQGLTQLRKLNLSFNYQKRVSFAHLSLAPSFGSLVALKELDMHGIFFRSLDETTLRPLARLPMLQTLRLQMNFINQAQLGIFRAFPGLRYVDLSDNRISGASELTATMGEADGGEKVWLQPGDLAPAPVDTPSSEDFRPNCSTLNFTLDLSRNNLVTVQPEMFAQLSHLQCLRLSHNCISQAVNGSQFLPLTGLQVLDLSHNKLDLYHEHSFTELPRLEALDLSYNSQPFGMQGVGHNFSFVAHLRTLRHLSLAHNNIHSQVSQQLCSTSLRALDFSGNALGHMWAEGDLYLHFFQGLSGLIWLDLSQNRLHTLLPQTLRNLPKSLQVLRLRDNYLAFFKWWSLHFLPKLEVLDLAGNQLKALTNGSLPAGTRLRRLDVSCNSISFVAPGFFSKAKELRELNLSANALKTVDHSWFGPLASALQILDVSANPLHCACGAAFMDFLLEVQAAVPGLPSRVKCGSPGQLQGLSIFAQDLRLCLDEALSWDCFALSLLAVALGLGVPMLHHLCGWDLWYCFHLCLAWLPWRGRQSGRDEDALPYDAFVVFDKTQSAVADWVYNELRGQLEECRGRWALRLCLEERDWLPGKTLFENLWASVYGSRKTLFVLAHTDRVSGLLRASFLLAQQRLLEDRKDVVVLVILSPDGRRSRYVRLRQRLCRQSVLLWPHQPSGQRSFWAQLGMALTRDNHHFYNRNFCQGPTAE
How it was run: as §1

human TLR7 = target: T3, human TLR7 (Homo sapiens, UniProt Q9NYK1); assay: TLR7 inhibition reporter assay (HEK-Blue cells, SEAP reporter, gardiquimod stimulation); settings: HEK-Blue cells overexpressing human TLR7, SEAP reporter, gardiquimod 7.5 μM
T3 construct: host or cells: HEK-Blue cells (HEK293-derived reporter line)
T3 sequence (Q9NYK1 27-1049): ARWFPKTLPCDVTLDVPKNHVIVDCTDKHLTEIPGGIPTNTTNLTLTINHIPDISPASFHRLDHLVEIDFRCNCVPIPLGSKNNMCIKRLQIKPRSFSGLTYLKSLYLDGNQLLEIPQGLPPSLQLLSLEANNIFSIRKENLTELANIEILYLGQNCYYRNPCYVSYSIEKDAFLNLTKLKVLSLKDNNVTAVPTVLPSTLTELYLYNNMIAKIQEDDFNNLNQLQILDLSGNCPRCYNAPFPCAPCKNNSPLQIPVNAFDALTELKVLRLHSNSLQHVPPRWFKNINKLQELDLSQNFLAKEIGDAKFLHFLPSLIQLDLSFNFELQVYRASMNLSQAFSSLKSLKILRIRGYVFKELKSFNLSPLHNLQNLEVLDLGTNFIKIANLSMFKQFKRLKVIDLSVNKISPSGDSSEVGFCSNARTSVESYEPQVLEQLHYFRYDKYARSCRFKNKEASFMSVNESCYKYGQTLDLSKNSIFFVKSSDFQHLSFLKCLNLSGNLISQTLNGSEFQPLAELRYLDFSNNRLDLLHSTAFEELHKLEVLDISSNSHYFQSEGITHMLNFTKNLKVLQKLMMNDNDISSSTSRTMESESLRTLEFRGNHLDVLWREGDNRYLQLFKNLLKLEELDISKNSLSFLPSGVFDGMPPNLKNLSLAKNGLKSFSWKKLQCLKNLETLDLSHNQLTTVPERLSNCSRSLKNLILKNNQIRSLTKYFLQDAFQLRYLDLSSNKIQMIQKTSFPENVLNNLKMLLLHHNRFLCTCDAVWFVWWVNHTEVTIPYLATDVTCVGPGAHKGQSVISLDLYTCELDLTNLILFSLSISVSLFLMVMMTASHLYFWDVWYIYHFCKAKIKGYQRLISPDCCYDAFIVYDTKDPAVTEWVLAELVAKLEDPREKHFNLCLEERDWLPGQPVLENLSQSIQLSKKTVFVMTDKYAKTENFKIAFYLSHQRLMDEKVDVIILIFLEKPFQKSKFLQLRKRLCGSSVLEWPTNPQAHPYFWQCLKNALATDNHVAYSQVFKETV
How it was run: as §1

Work on CC(C)c1c(-c2cn(C)c3ncccc23)[nH]c2ccc(C3CCN(Cc4cnn[nH]4)CC3)cc12 [Example 877, 3-(5-(1-((1H-1,2,3-triazol-5-yl)methyl)piperidin-4-yl)-3-isopropyl-1H-indol-2-yl)-1-methyl-1H-pyrrolo[2,3-b]pyridine] yielded an IC50 (human TLR8) of less than 100 nM, an IC50 (human TLR9) of 1000 to 50000 nM and an IC50 (human TLR7) of less than 100 nM.

For Cc1c(-c2[nH]c3ccc(C4CCN(C5COC5)CC4)cc3c2C(C)C)nn2ncnc2c1C [Example 730, 6-(3-isopropyl-5-(1-(oxetan-3-yl)piperidin-4-yl)-1H-indol-2-yl)-7,8-dimethyl-[1,2,4]triazolo[1,5-b]pyridazine], the IC50 (human TLR8) was less than 100 nM, the IC50 (human TLR9) was 1000 to 50000 nM and the IC50 (human TLR7) was less than 100 nM.

Cc1cc(-c2[nH]c3ccc(C4CCN(C5COC5)CC4)cc3c2C(C)C)cc2ncnn12 [Example 727, 7-(3-isopropyl-5-(1-(oxetan-3-yl)piperidin-4-yl)-1H-indol-2-yl)-5-methyl-[1,2,4]triazolo[1,5-a]pyridine] was tested, and the IC50 (human TLR8) was less than 100 nM, the IC50 (human TLR9) was 1000 to 50000 nM and the IC50 (human TLR7) was less than 100 nM.

Cc1cc2nnnn2cc1-c1[nH]c2ccc(C3CCN(CCS(C)(=O)=O)CC3)cc2c1C(C)C [Example 790, 6-(3-isopropyl-5-(1-(2-(methylsulfonyl)ethyl)piperidin-4-yl)-1H-indol-2-yl)-7-methyltetrazolo[1,5-a]pyridine] showed an IC50 (human TLR8) of less than 100 nM, an IC50 (human TLR9) of 1000 to 50000 nM and an IC50 (human TLR7) of less than 100 nM.

In the case of CNC(=O)CN1CCC(c2ccc3[nH]c(-c4cc(OC)c5nccn5c4)c(C(C)C)c3c2)CC1 [Example 434, 2-(4-(3-isopropyl-2-(8-methoxyimidazo[1,2-a]pyridin-6-yl)-1H-indol-5-yl)piperidin-1-yl)-N-methylacetamide], the IC50 (human TLR8) is reported as less than 100 nM, the IC50 (human TLR9) is reported as 100 to 1000 nM and the IC50 (human TLR7) is reported as less than 100 nM.

With Cc1cc2nnnn2cc1-c1[nH]c2ccc(C3CCN(C4CCOCC4)CC3)cc2c1C(C)C [Example 699, 6-(3-isopropyl-5-(1-(tetrahydro-2H-pyran-4-yl)piperidin-4-yl)-1H-indol-2-yl)-7-methyltetrazolo[1,5-a]pyridine] the IC50 (human TLR8) was less than 100 nM, the IC50 (human TLR9) was 1000 to 50000 nM and the IC50 (human TLR7) was less than 100 nM.

In the case of CNC(=O)CN1CCC(c2ccc3[nH]c(-c4cc(C(F)(F)F)c5nc(C)cn5c4)c(C(C)C)c3c2)CC1 [Example 377, 2-(4-(3-isopropyl-2-(2-methyl-8-(trifluoromethyl)imidazo[1,2-a]pyridin-6-yl)-1H-indol-5-yl)piperidin-1-yl)-N-methylacetamide], the IC50 (human TLR8) is reported as 100 to 1000 nM, the IC50 (human TLR9) is reported as 1000 to 50000 nM and the IC50 (human TLR7) is reported as less than 100 nM.

In the case of Cc1cc(-c2[nH]c3ccc(C4CCN(C(=O)CN(C)C)CC4)cc3c2C(C)C)cc2nccnc12 [Example 518, 2-(dimethylamino)-1-(4-(3-isopropyl-2-(8-methylquinoxalin-6-yl)-1H-indol-5-yl)piperidin-1-yl)ethan-1-one], the IC50 (human TLR8) is reported as less than 100 nM, the IC50 (human TLR9) is reported as 1000 to 50000 nM and the IC50 (human TLR7) is reported as less than 100 nM.

Compound Cc1nc(CN2CCC(c3ccc4[nH]c(-c5ccc6nccn6c5)c(CC(F)F)c4c3)CC2)c[nH]1 [Example 939, 6-(3-(2,2-difluoroethyl)-5-(1-((2-methyl-1H-imidazol-4-yl)methyl)piperidin-4-yl)-1H-indol-2-yl)imidazo[1,2-a]pyridine] has an IC50 (human TLR8) of 100 to 1000 nM, an IC50 (human TLR9) of 100 to 1000 nM and an IC50 (human TLR7) of 100 to 1000 nM.

CC(C)c1c(-c2cn(C)c3ncccc23)[nH]c2ccc(C3CCN(C4CCOCC4)CC3)cc12 [Example 694, 3-(3-isopropyl-5-(1-(tetrahydro-2H-pyran-4-yl)piperidin-4-yl)-1H-indol-2-yl)-1-methyl-1H-pyrrolo[2,3-b]pyridine] gave an IC50 (human TLR8) of less than 100 nM, an IC50 (human TLR9) of 1000 to 50000 nM and an IC50 (human TLR7) of less than 100 nM.

CC(C)c1c(-c2ccc3c(O)noc3c2)[nH]c2ccc(C3CCNCC3)cc12 [Example 5, 6-(3-isopropyl-5-(piperidin-4-yl)-1H-indol-2-yl)benzo[d]isoxazol-3-ol] was tested, and the IC50 (human TLR8) was 1000 to 50000 nM, the IC50 (human TLR9) was 1000 to 50000 nM and the IC50 (human TLR7) was 100 to 1000 nM.

CCc1c(-c2cccc3[nH]ncc23)[nH]c2ccc(C3CCN(CC(=O)NC)CC3)cc12 [Example 388, 2-(4-(3-ethyl-2-(1H-indazol-4-yl)-1H-indol-5-yl)piperidin-1-yl)-N-methylacetamide] showed an IC50 (human TLR8) of 1000 to 50000 nM, an IC50 (human TLR9) greater than 50000 nM and an IC50 (human TLR7) of 1000 to 50000 nM.

CC(C)c1c(-c2ccc(C#N)c3ncccc23)[nH]c2ccc(C3CCN(CC(=O)N(C)C)CC3)cc12 [Example 370, 2-(4-(2-(8-cyanoquinolin-5-yl)-3-isopropyl-1H-indol-5-yl)piperidin-1-yl)-N,N-dimethylacetamide] was tested, and the IC50 (human TLR8) was less than 100 nM, the IC50 (human TLR9) was 1000 to 50000 nM and the IC50 (human TLR7) was less than 100 nM.

Cc1cc(-c2[nH]c3ccc(C4CCN(C(=O)CN5CC(C)(C)OC(C)(C)C5)CC4)cc3c2C(C)C)cn2nnnc12 [Example 473, 1-(4-(3-isopropyl-2-(8-methyltetrazolo[1,5-a]pyridin-6-yl)-1H-indol-5-yl)piperidin-1-yl)-2-(2,2,6,6-tetramethylmorpholino)ethan-1-one] gave an IC50 (human TLR8) of 100 to 1000 nM, an IC50 (human TLR9) greater than 50000 nM and an IC50 (human TLR7) of less than 100 nM.
